In patent US5288709A, “Erythromycin derivatives” (priority 1991, dated 1994):
≈ marks a conversion by molar mass, not a printed value. Like-named read-outs stand apart in the source and are kept apart here.

Tests used:
[1] = system: Acinetobacter SP CMX 669; assay: In-vitro antimicrobial activity primary screen (agar dilution MIC); type: cell-based
Procedure, shortened: (§1)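 BHI agar dilution MIC, 35-37° C overnight (20-24 h), replicator inoculation at 1:100 or 1:10 for slow strains. Endpoint: no growth, slight haze or sparse colonies versus compound-free plate.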

[2] = system: Enterobacter aerogenes ATCC 13048; assay: as above; type: cell-based; details: Klebsiella aerogenes, Enterobacter aerogenes ATCC 13048, BHI agar, 20-24 h
Procedure, shortened: as §1

[3] = system: Enterococcus faecium ATCC 8043; assay: as above; type: cell-based
Procedure, shortened: as §1

[4] = system: Escherichia coli DC-2; assay: as above; type: cell-based; details: DC2; Escherichia coli DC-2; BHI agar, 20-24 h; read-out: MIC
Procedure, shortened: as §1

[5] = system: Escherichia coli H560; assay: as above; type: cell-based; details: Escherichia coli H560; BHI agar, 20-24 h; read-out: MIC
Procedure, shortened: as §1

[6] = system: Escherichia coli JUHL; assay: as above; type: cell-based
Procedure, shortened: as §1

[7] = system: Escherichia coli SS; assay: as above; type: cell-based; details: BHI agar, 20-24 h, read-out: MIC
Procedure, shortened: as §1

[8] = system: Micrococcus luteus ATCC 4698; assay: as above; type: cell-based; details: ATCC4698, BHI agar, 20-24 h, read-out: MIC
Procedure, shortened: as §1

[9] = system: Micrococcus luteus ATCC 9341; assay: as above; type: cell-based; details: ATCC9341, BHI agar, 20-24 h, read-out: MIC
Procedure, shortened: as §1

[10] = system: Providencia stuartii CMX 640; assay: as above; type: cell-based; details: CMX640; Providencia stuartii CMX 640; BHI agar, 20-24 h; read-out: MIC
Procedure, shortened: as §1

[11] = system: Pseudomonas aeruginosa A5007; assay: as above; type: cell-based; details: Pseudomonas aeruginosa A5007; BHI agar, 20-24 h; read-out: MIC
Procedure, shortened: as §1

[12] = system: Pseudomonas aeruginosa BMH10; assay: as above; type: cell-based; details: Pseudomonas aeruginosa, BMH10, 24 h, BHI agar, 20-24 h
Procedure, shortened: as §1

[13] = system: Pseudomonas aeruginosa K799/61; assay: as above; type: cell-based; details: Pseudomonas aeruginosa K799/61; BHI agar, 20-24 h; read-out: MIC
Procedure, shortened: as §1

[14] = system: Pseudomonas aeruginosa K799/WT; assay: as above; type: cell-based; details: Pseudomonas aeruginosa K799/WT; BHI agar, 20-24 h; read-out: MIC
Procedure, shortened: as §1

[15] = system: Pseudomonas cepacia 2961; assay: as above; type: cell-based; details: Burkholderia cepacia, BHI agar, 20-24 h, read-out: MIC
Procedure, shortened: as §1

[16] = system: Staphylococcus aureus 45 RAR2; assay: as above; type: cell-based; details: Staphylococcus aureus, 45RAR2, 24 h, BHI agar, 20-24 h
Procedure, shortened: as §1

[17] = system: Staphylococcus aureus 45; assay: as above; type: cell-based; details: BHI agar, 20-24 h, read-out: MIC
Procedure, shortened: as §1

[18] = system: Staphylococcus aureus A5177; assay: as above; type: cell-based
Procedure, shortened: as §1

[19] = system: Staphylococcus aureus ATCC 6538P; assay: as above; type: cell-based; details: Staphylococcus aureus, ATCC6538P, 24 h, BHI agar, 20-24 h
Procedure, shortened: as §1

[20] = system: Staphylococcus epidermidis 3519; assay: as above; type: cell-based; details: BHI agar, 20-24 h, read-out: MIC
Procedure, shortened: as §1

[21] = system: Streptococcus agalactiae CMX 508; assay: as above; type: cell-based; details: CMX508, BHI agar, 20-24 h, read-out: MIC
Procedure, shortened: as §1

[22] = system: Streptococcus bovis A5169; assay: as above; type: cell-based; details: Streptococcus equinus, BHI agar, 20-24 h, read-out: MIC
Procedure, shortened: as §1

[23] = system: Streptococcus pyrogenes 2548 INDUC; assay: as above; type: cell-based; details: BHI agar, 20-24 h, read-out: MIC
Procedure, shortened: as §1

[24] = system: Streptococcus pyrogenes EES61; assay: as above; type: cell-based; details: BHI agar, 20-24 h, read-out: MIC
Procedure, shortened: as §1

[25] = system: Staphylococcus aureus CMX 503A; assay: as above; type: cell-based; details: Staphylococcus aureus, CMX503A, 24 h, BHI agar, 20-24 h, read-out: MIC
Procedure, shortened: (§2)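 MIC is read as the lowest compound level yielding no growth, slight haze or sparse colonies on the inoculum spot, relative to a drug-free plate. Strains were replicator-inoculated (1:100 dilution) onto BHI agar plates holding twelve dilutions and held at 35-37 °C for 20-24 h, with erythromycin A as comparator.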

[26] = system: Staphylococcus aureus CMX 553; assay: as above; type: cell-based; details: Staphylococcus aureus, CMX553, 24 h, BHI agar, 20-24 h, read-out: MIC
Procedure, shortened: as §2

[27] = system: Staphylococcus aureus CMX 686B; assay: as above; type: cell-based; details: CMX686B, BHI agar, 20-24 h, read-out: MIC
Procedure, shortened: as §2

[28] = system: Staphylococcus aureus (NCTC 10649); assay: In-vivo acute mouse protection assay; parameters: species or system Staphylococcus aureus; female Swiss albino mice; details: Staphylococcus aureus, NCTC10649, sc, 168 h; subcutaneous; dosed 1 and 5 h post-infection, observed 7 days; read-out: ED50
Procedure: (§3) An acute mouse protection test was conducted on ten mice with each of three concentrations of selected compounds of the invention. Each concentration was a four-fold dilution of the previous concentration. The initial concentration will vary with the microorganism with which the mouse is challenged.
(§4) The acute mouse protection test was conducted on female, Swiss albino mice, 18-20 grams in weight. […] To check the potency of the inoculum, a titration of the indicated test organism was carried out in control animals. The titration determines the LD50 for a particular microorganism. The treatment groups of animals were dosed orally, by gavage, or subcutaneously with the test compounds at 1 and 5 hours post-infection and observed for 7 days. The ED50 were calculated using the mortality data collected.

[29] = system: Streptococcus pyogenes C-203; assay: In-vivo acute mouse protection assay; parameters: species or system Streptococcus pyogenes; female Swiss albino mice; details: dosed 1 and 5 h post-infection, observed 7 days
Procedure: as §3, §4

[30] = system: Streptococcus pneumoniae (ATCC 6303); assay: In-vivo acute mouse protection assay; parameters: species or system Streptococcus pneumoniae; female Swiss albino mice; details: dosed 1 and 5 h post-infection, observed 7 days
Procedure: as §3, §4

[31] = system: Klebsiella pneumoniae ATCC 8045; assay: In-vitro antimicrobial activity primary screen (agar dilution MIC); type: cell-based; details: ATCC8045; Klebsiella pneumoniae ATCC 8045; BHI agar, 20-24 h; read-out: MIC
Procedure, shortened: as §1

[32] = system: Staphylococcus aureus 642A; assay: as above; type: cell-based; details: BHI agar, 20-24 h, read-out: MIC
Procedure, shortened: as §1

[33] = system: Staphylococcus aureus NCTC 10649; assay: as above; type: cell-based; details: NCTC10649, BHI agar, 20-24 h, read-out: MIC
Procedure, shortened: as §1

[34] = Pharmacokinetic evaluation in dogs after a 10 mg/kg dose; details: dog, plasma; for half-life: t1/2 (biological half life); for bioavailability: % ABS (percent absorbance), from AUC (absolute bioavailability); for Cmax: Cmax (maximum concentration in blood); for Tmax: Tmax (time to achieve maximum concentration in blood)
Procedure: Selected compounds of the present invention were formulated as solutions in dilute lactobionic acid at a concentration of 10 or 20 mg/ml. Groups of two or three dogs were given a 10 mg macrolide/kg intravenous bolus or oral dose (by gavage). Plasma samples, obtained at selected time points from 15 minutes to 32 hours after dosing, were assayed using reverse phase HPLC with electrochemical detection (parent drug) and microbiological assay (total microbiological activity). Plasma concentration time curves were subjected to multi exponential curve fitting to determine terminal elimination half life values. Area under the curve (AUC) values, calculated by the trapezoidal method, were used to calculate absolute bioavailability.

[35] = po, oral 10 mg/kg, HPLC (parent drug)
[36] = po, oral 10 mg/kg, microbiological assay

Compound | MIC [4] [µg/mL] | MIC [5] [µg/mL] | MIC [7] [µg/mL] | MIC [8] [µg/mL] | MIC [9] [µg/mL] | MIC [10] [µg/mL] | MIC [11] [µg/mL] | MIC [12] [µg/mL] | MIC [13] [µg/mL] | MIC [14] [µg/mL] | MIC [15] [µg/mL] | MIC [16] [µg/mL] | MIC [17] [µg/mL] | MIC [19] [µg/mL] | MIC [20] [µg/mL] | MIC [21] [µg/mL] | MIC [22] [µg/mL] | MIC [23] [µg/mL] | MIC [24] [µg/mL] | MIC [26] [µg/mL] | also measured
CC[C@H]1OC(=O)[C@H](C)[C@@H](O[C@H]2C[C@@](C)(OC)[C@@H](N)[C@H](C)O2)[C@H](C)[C@@H](O[C@@H]2O[C@H](C)C[C@H](N(C)C)[C@H]2O)[C@](C)(O)C[C@@H](C)[C@@H]2O[C@@]1(C)[C@@H](O)[C@H]2C [Example 15, (4"S,9S,11S)-4"-Amino-9-deoxo-4",12-dideoxy-9,12-epoxyerythromycin A] | 6.2 (≈ 8.65 µM) | 3.1 (≈ 4.32 µM) | 0.1 (≈ 0.139 µM) | 0.05 (≈ 0.0697 µM) | 0.01 (≈ 0.0139 µM) | > 100 | > 100 | 50 (≈ 69.7 µM) | 0.78 (≈ 1.09 µM) | 100 (≈ 139 µM) | > 100 | 0.39 (≈ 0.544 µM) | 0.39 (≈ 0.544 µM) | 0.39 (≈ 0.544 µM) | 0.2 (≈ 0.279 µM) | 0.02 (≈ 0.0279 µM) | 0.01 (≈ 0.0139 µM) | 6.2 (≈ 8.65 µM) | 0.02 (≈ 0.0279 µM) | 0.2 (≈ 0.279 µM) | MIC ([1]; SPCMX669, Acinetobacter SP CMX 669, BHI agar, 20-24 h, read-out: MIC): 6.2 µg/mL (≈ 8.65 µM); MIC ([2]; ATCC13048, 24 h): 50 µg/mL (≈ 69.7 µM); MIC ([3]; Enterococcus faecium, ATCC8043, 24 h): 0.1 µg/mL (≈ 0.139 µM); MIC ([6]; Escherichia coli, 24 h): 12.5 µg/mL (≈ 17.4 µM); MIC ([18]; Staphylococcus aureus A5177, BHI agar, 20-24 h, read-out: MIC): 1.56 µg/mL (≈ 2.18 µM); MIC [25]: 0.39 µg/mL (≈ 0.544 µM); MIC [27]: 0.39 µg/mL (≈ 0.544 µM); ED50 [28]: 30.1 mg/kg; ED50 ([29]; C203, 168 h, oral): 47.9 mg/kg; ED50 ([29]; C203, sc, 168 h, subcutaneous): 5 mg/kg; ED50 ([30]; ATCC6303, 168 h, oral, read-out: ED50): 37.3 mg/kg; ED50 ([30]; ATCC6303, sc, 168 h, subcutaneous): 4 mg/kg
CC[C@H]1OC(=O)[C@H](C)[C@@H](O[C@H]2C[C@@](C)(OC)[C@@H](N)[C@H](C)O2)[C@H](C)[C@@H](O[C@@H]2O[C@H](C)C[C@H](N(C)C)[C@H]2O)[C@](C)(O)C[C@@H](C)[C@@H]2O[C@@]1(C)[C@@H](N)[C@H]2C [Example 22, (4"S,9S,11S)-4",11-Diamino-9-deoxo-4",11,12-trideoxy-9,12-epoxyerythromycinA] | 3.1 (≈ 4.33 µM) | 0.78 (≈ 1.09 µM) | 0.1 (≈ 0.14 µM) | 0.05 (≈ 0.0698 µM) | ≤ 0.005 | > 100 | > 100 | 12.5 (≈ 17.5 µM) | 0.39 (≈ 0.545 µM) | 100 (≈ 140 µM) | > 100 | 0.2 (≈ 0.279 µM) | 0.1 (≈ 0.14 µM) | 0.2 (≈ 0.279 µM) | 0.2 (≈ 0.279 µM) | 0.01 (≈ 0.014 µM) | 0.01 (≈ 0.014 µM) | 1.56 (≈ 2.18 µM) | 0.01 (≈ 0.014 µM) | 0.2 (≈ 0.279 µM) | MIC ([1]; Acinetobacter, SPCMX669, 24 h): 0.39 µg/mL (≈ 0.545 µM); MIC ([2]; ATCC13048, read-out: MIC): 6.2 µg/mL (≈ 8.66 µM); MIC ([3]; ATCC8043, Enterococcus faecium ATCC 8043, BHI agar, 20-24 h, read-out: MIC): 0.05 µg/mL (≈ 0.0698 µM); MIC ([6]; Escherichia coli JUHL, BHI agar, 20-24 h, read-out: MIC): 1.56 µg/mL (≈ 2.18 µM); MIC [31]: 1.56 µg/mL (≈ 2.18 µM); MIC [32]: 0.2 µg/mL (≈ 0.279 µM); MIC ([18]; Staphylococcus aureus, A5177, 24 h): 1.56 µg/mL (≈ 2.18 µM); MIC [33]: 0.2 µg/mL (≈ 0.279 µM); half-life ([34]; iv, IV 10 mg/kg, HPLC (parent drug)): 9.3 h; half-life ([34]; iv, IV 10 mg/kg, microbiological assay): 10.2 h; bioavailability [34, 35]: 43%; bioavailability [34, 36]: 57%; Cmax [34, 35]: 3200 ng/mL; Cmax [34, 36]: 3500 ng/mL; Tmax [34, 35]: 0.5 h; Tmax [34, 36]: 0.6 h; half-life [34, 35]: 11.5 h; half-life [34, 36]: 9.8 h
